Earlier results in patent US20090029020A1, “CYCLODEXTRIN INCLUSION COMPLEXES AND METHODS OF PREPARING SAME” (CARGILL, INCORPORATED, priority 2005, published 2009).
Where two headings read alike, the source gives them in different places. Residues, ends and D or L forms follow the SMILES beside them.

Conditions: octanol/water partition coefficient

Row | SMILES | log P (Table 1A) | log P (Table 9)
1 | O=C(O)[C@@H]1CCCN1 [proline] | −2.15 | −2.15
2 | C=C(C)[C@H]1CC=C(C)CC1 [limonene] | 4.83 | 4.83
3 | CO [methanol] | −0.74 | −0.74
4 | CCOC(=O)CC(C)C [ethyl isovalerate] | 2.26 | 2.26
5 | Cc1ccc(C(C)C)cc1 [p-cymene] | 4.10 | 4.10
6 | CC1=C(O)C(=O)C(C)O1 (stereo not drawn) [furaneol] | 0.82 | 0.82
7 | CCOC(=O)CCC(C)=O [ethyl levulinate] | 0.29 | 0.29
8 | CSC [dimethyl sulfide] | 0.92 | 0.92
9 | CN(CC(=O)O)C(=N)N [creatine] | −3.72 | −3.72
10 | CCOC(=O)C(C)O (stereo not drawn) [ethyl lactate] | −0.18 | −0.18
11 | CC=O [acetaldehyde] | −0.17 | −0.17
12 | C=CC(C)(O)CCC=C(C)C (stereo not drawn) [linalool] |  | 3.38
13 | CC(=O)C(C)=O [diacetyl] | −1.34 | −1.34
14 | CC(=O)CCc1ccc(O)cc1 [raspberry ketone] | 1.48 | 1.48
15 | CCOC(=O)C(C)C [ethyl isobutyrate] | 1.77 | 1.77
16 | CCOc1cc(C=O)ccc1O [ethyl vanillin] | 1.50 | 1.50
17 | COC(=O)[C@H](Cc1ccccc1)NC(=O)[C@@H](N)CC(=O)O [aspartame] (H-Asp-Phe-OMe) | 0.07 | 0.07
18 | ClC1CCCCC1 [chlorocyclohexane (CCH), chlorocyclohexane] | 3.36 | 3.36
19 | CCc1occc(=O)c1O [ethyl maltol] | 0.30 | 0.30
20 | Cc1occc(=O)c1O [maltol] | −0.19 | −0.19
